Experimental data reported in publication PMC6681824 (Biochemistry, 2019).
Where “and” joins values, the source holds several entries; their conditions need not be identical. Equal values may be shown once. Read-outs that look alike come from different tables or passages of the source.

How the values were obtained:
pol η = target: T1, pol η (Homo sapiens, UniProt Q9Y253); format: biochemical; settings: for Kd: read-out: apparent Kd; for increase in G·T misincorporation rate constant (kpol), W versus B: G opposite T, W sequence compared to B sequence
T1 sequence (Q9Y253 1-713): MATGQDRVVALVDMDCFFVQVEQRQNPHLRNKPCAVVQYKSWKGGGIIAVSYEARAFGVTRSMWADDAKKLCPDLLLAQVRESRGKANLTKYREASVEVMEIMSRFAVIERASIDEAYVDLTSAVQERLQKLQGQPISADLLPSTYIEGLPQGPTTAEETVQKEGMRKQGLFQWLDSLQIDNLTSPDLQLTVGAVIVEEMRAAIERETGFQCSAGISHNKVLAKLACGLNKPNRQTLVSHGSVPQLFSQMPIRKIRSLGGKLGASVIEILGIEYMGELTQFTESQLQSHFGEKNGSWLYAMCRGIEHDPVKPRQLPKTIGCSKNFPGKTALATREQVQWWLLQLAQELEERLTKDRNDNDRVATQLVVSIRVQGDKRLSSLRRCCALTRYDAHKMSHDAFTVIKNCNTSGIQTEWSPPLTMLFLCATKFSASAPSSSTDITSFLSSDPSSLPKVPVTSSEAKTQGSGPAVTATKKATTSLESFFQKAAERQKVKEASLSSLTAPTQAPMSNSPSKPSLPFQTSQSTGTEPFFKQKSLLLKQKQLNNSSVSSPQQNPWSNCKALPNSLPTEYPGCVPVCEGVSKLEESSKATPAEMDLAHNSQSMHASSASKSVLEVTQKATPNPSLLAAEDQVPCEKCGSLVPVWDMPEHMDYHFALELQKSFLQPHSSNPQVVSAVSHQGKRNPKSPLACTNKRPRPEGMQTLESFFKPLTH

[1] = Potentiometric titration of leaving-group acids; format: physicochemical; settings: 0.1 M KCl, 25 °C
[2] = A opposite T (correct), B sequence
[3] = A opposite T (correct), W sequence
[4] = G opposite T (mispair), B sequence
[5] = G opposite T (mispair), W sequence

Row | Kd (pol η; [2]) [µM] | Kd (pol η; [3]) [µM] | kpol (chemical misincorporation rate constant) (pol η; [4]) [s⁻¹] | kpol (chemical misincorporation rate constant) (pol η; [5]) [s⁻¹] | increase in G·T misincorporation rate constant (kpol), W versus B (pol η) | Kd (pol η; [4]) [µM] | Kd (pol η; [5]) [µM] | Structure (SMILES) | also measured
1 | 190 ± 80 | 140 ± 20 | – | – | – | – | – | Nc1ncnc2c1ncn2[C@H]1CC(O)[C@@H](COP(=O)(O)OP(=O)(O)C(F)P(=O)(O)O)O1 (stereo partly shown) [dATP-CHF] | –
2 | 9.4 ± 3.1 | 7.1 ± 2.1 | – | – | – | – | – | Nc1ncnc2c1ncn2[C@H]1C[C@H](O)[C@@H](COP(=O)(O)OP(=O)(O)OP(=O)(O)O)O1 [dATP] | –
3 | – | – | 0.032 ± 0.005 | 0.12 ± 0.00 | 3.8 fold and 4 fold | 370 ± 60 | 390 ± 20 | Nc1nc2c(ncn2C2CC(O)C(COP(=O)(O)OP(=O)(O)C(F)P(=O)(O)O)O2)c(=O)[nH]1 (stereo not shown) [dGTP-CHF] | increase in G·T misincorporation rate constant (kpol), W versus B (pol η; listed as CHF-dG): 3–4 fold
4 | – | – | 0.21 ± 0.02 | 0.86 ± 0.02 | ~ 4 fold and 3–4 fold and 4 fold | 30 ± 3 | 20 ± 4 | Nc1nc2c(ncn2[C@H]2C[C@H](O)[C@@H](COP(=O)(O)OP(=O)(O)OP(=O)(O)O)O2)c(=O)[nH]1 [dGTP] | –
5 | – | – | – | – | – | – | – | O=P(O)(O)NP(=O)(O)O [imidodiphosphoric acid] | pKa1 [1]: 2.01; pKa2 [1]: 2.81; pKa3 [1]: 7.11; pKa4 (soln) ([1]; imidodiphosphoric acid (NH leaving group)): 9.70
